Laboratory results published in patent EP0414533A1, “Use of iodopropargyl esters of alpha-amino acid derivatives as antimicrobial agents” (ROHM AND HAAS COMPANY, priority 1989, dated 1991).
Counter-ions that a name gives are not always drawn. Like-named read-outs stand apart in the source and are kept apart here.

Tests used:
Assay type in all cases: cell-based
[1] = test system: Aspergillus niger (ANIG); test: Minimum inhibitory concentration (MIC), broth two-fold serial dilution test; settings: Aspergillus niger, read-out: MIC (F) ANIG, M9G (minimal salts media with glucose); Table IIIc, iodopropargyl esters of peptides
[2] = test system: ALT; test: In-vitro plant fungicide test; parameters: inhibition of growth: concentration or dose not given beside the values; settings: Table IVb, read-out: % Control at (ppm) indicated ALT
[3] = test system: Botrytis cinerea (BOC); test: In-vitro plant fungicide test; settings: Botrytis cinerea
[4] = test system: CER; test: In-vitro plant fungicide test; settings: Table IVb, read-out: % Control at (ppm) indicated CER
[5] = test system: COL; test: In-vitro plant fungicide test; parameters: inhibition of growth: concentration or dose not given beside the values; settings: Table IVb, read-out: % Control at (ppm) indicated COL
[6] = test system: Fusarium roseum (FUS); test: In-vitro plant fungicide test; settings: Fusarium sambucinum
[7] = test system: Cochliobolus sativus (HEL); test: In-vitro plant fungicide test; settings: Bipolaris sorokiniana
[8] = test system: MON; test: In-vitro plant fungicide test; settings: Table IVb, read-out: % Control at (ppm) indicated MON

For C[C@H](N)C(=O)N[C@@H](COCc1ccccc1)C(=O)OCC#CI [Compound 19, L-alanyl-O-benzyl-L-serine iodopropargyl ester trifluoroacetate], the MIC [1] was under 0.8 µg/mL, the inhibition of growth at 1.5 ppm ([2]; 1.5 ppm) was 0% and the inhibition of growth at 3 ppm ([2]; 3 ppm) was 50%. The inhibition of growth at 6 ppm ([2]; 6 ppm) was 75%, the inhibition of growth at 25 ppm ([2]; 25 ppm) was 100% and the inhibition of growth at 0.2 ppm ([2]; .2 ppm) was 0%. For the same molecule, the inhibition of growth at 0.4 ppm ([2]; .4 ppm) was 0%, the inhibition of growth at 0.8 ppm ([2]; .8 ppm) was 0% and the inhibition of growth [2] was 100%. For the same molecule, the inhibition of growth at 1.5 ppm ([3]; 1.5 ppm, Table IVb, read-out: % Control at (ppm) indicated BOC) was 0%, the inhibition of growth at 6 ppm ([3]; 6 ppm, Table IVb, read-out: % Control at (ppm) indicated BOC) was 0% and the inhibition of growth at 25 ppm ([3]; Table IVa, *=Phytotoxic, read-out: % Control at 25 ppm BOC) was 0%. It also gave an inhibition of growth at 25 ppm ([3]; Table IVb, read-out: % Control at (ppm) indicated BOC) of 90%, an inhibition of growth at 0.2 ppm ([3]; .2 ppm, Table IVb, read-out: % Control at (ppm) indicated BOC) of 0% and an inhibition of growth at 0.4 ppm ([3]; .4 ppm, Table IVb, read-out: % Control at (ppm) indicated BOC) of 0%. It also gave an inhibition of growth at 0.8 ppm ([3]; .8 ppm, Table IVb, read-out: % Control at (ppm) indicated BOC) of 0%, an inhibition of growth at 1.5 ppm ([4]; 1.5 ppm) of 0% and an inhibition of growth at 6 ppm ([4]; 6 ppm) of 50%. For the same molecule, the inhibition of growth at 25 ppm ([4]; 25 ppm) was 100%, the inhibition of growth at 0.2 ppm ([4]; .2 ppm) was 0% and the inhibition of growth at 0.4 ppm ([4]; .4 ppm) was 0%. The inhibition of growth at 0.8 ppm ([4]; .8 ppm) was 0%, the inhibition of growth at 1.5 ppm ([5]; 1.5 ppm) was 0% and the inhibition of growth at 3 ppm ([5]; 3 ppm) was 0%. It also gave an inhibition of growth at 6 ppm ([5]; 6 ppm) of 0%, an inhibition of growth at 0.2 ppm ([5]; .2 ppm) of 0% and an inhibition of growth at 0.4 ppm ([5]; .4 ppm) of 0%. The inhibition of growth at 0.8 ppm ([5]; .8 ppm) was 0%, the inhibition of growth [5] was 0% and the inhibition of growth at 25 ppm ([6]; read-out: % Control at 25 ppm FUS, 25 ppm, Table IVa, *=Phytotoxic) was 100%. The inhibition of growth at 1.5 ppm ([6]; read-out: % Control at (ppm) indicated FUS, 1.5 ppm, Table IVb) was 0%, the inhibition of growth at 3 ppm ([6]; read-out: % Control at (ppm) indicated FUS, 3 ppm, Table IVb) was 0% and the inhibition of growth at 6 ppm ([6]; read-out: % Control at (ppm) indicated FUS, 6 ppm, Table IVb) was 0%. It also gave an inhibition of growth at 12 ppm ([6]; read-out: % Control at (ppm) indicated FUS, 12 ppm, Table IVb) of 0%, an inhibition of growth at 25 ppm ([6]; read-out: % Control at (ppm) indicated FUS, 25 ppm, Table IVb) of 0% and an inhibition of growth at 0.2 ppm ([6]; read-out: % Control at (ppm) indicated FUS, .2 ppm, Table IVb) of 0%. It also gave an inhibition of growth at 0.4 ppm ([6]; read-out: % Control at (ppm) indicated FUS, .4 ppm, Table IVb) of 0%, an inhibition of growth at 0.8 ppm ([6]; read-out: % Control at (ppm) indicated FUS, .8 ppm, Table IVb) of 0% and an inhibition of growth at 1.5 ppm ([7]; 1.5 ppm, Table IVb, read-out: % Control at (ppm) indicated HEL) of 0%. For the same molecule, the inhibition of growth at 6 ppm ([7]; 6 ppm, Table IVb, read-out: % Control at (ppm) indicated HEL) was 0%, the inhibition of growth at 25 ppm ([7]; Table IVa, *=Phytotoxic, read-out: % Control at 25 ppm HEL) was 100% and the inhibition of growth at 25 ppm ([7]; Table IVb, read-out: % Control at (ppm) indicated HEL) was 100%. It also gave an inhibition of growth at 0.2 ppm ([7]; .2 ppm, Table IVb, read-out: % Control at (ppm) indicated HEL) of 0%, an inhibition of growth at 0.4 ppm ([7]; .4 ppm, Table IVb, read-out: % Control at (ppm) indicated HEL) of 0% and an inhibition of growth at 0.8 ppm ([7]; .8 ppm, Table IVb, read-out: % Control at (ppm) indicated HEL) of 0%. The inhibition of growth at 1.5 ppm ([8]; 1.5 ppm) was 50% and the inhibition of growth at 6 ppm ([8]; 6 ppm) was 100%.
